Experimental data from paper PMC6008465 (British Journal of Cancer, 2018).

System: patients with advanced solid tumours
Assay: Phase 1 Part A (dose escalation): safety, DLT, MTD
Assay type: in vivo, human
Conditions: Part A
Method: The primary objectives of this phase 1 study were to evaluate the safety, tolerability, and MTD of once-weekly (Schedule I) and twice-weekly (Schedule II) dosing. Secondary objectives included evaluation of the PK profile of E6201. […] Toxicity was managed by dose interruption, reduction, and/or discontinuation. Only Cycle 1 adverse events (AEs) were evaluable as DLTs. Based on AEs reported at 480 mg/m^2 and 400 mg/m^2, the protocol was amended to include up to 6 additional toxicity-evaluable patients at 320 mg/m^2, to confirm this as the MTD. All ongoing patients could continue at 320 mg/m^2, regardless of initial starting dose.
Safety was assessed by monitoring AEs, serious AEs (SAEs), laboratory parameters, vital signs, 12-lead electrocardiograms (ECGs), Eastern Cooperative Oncology Group performance status, and symptom-directed physical and neurologic examination findings. AEs were graded by investigators based on the National Cancer Institute Common Terminology Criteria for Adverse Events, version 3.[16]

Structure (SMILES): CCNc1cc(O)c2c(c1)/C=C/C[C@H](O)[C@H](O)C(=O)/C=C\[C@@H](C)[C@H](C)OC2=O [E6201, (3S,4R,5Z,8S,9S,11E)-14-(ethylamino)-8,9,16-trihydroxy-3,4-dimethyl-3,4,9,19-tetrahydro-1H-2-benzoxacyclotetradecine-1,7 (8H)-dione]
- Fatigue TEAE incidence, All grades (320 mg/m^2 (n=7)): 3 (42.9) n (%)
- Fatigue TEAE incidence, G≥3 (320 mg/m^2 (n=7)): 1 (14.3) n (%)
- Hypokalemia TEAE incidence, All grades (320 mg/m^2 (n=7)): 2 (28.6) n (%)
- Hypokalemia TEAE incidence, G≥3 (320 mg/m^2 (n=7)): 0 n (%)
- Nausea TEAE incidence, All grades (320 mg/m^2 (n=7)): 5 (71.4) n (%)
- Nausea TEAE incidence, G≥3 (320 mg/m^2 (n=7)): 1 (14.3) n (%)
- Patients with a DLT (QTcF increase from baseline > 60 ms) and grade 2 CNS toxicities (320 mg/m^2 (n=7)): One
- Peripheral edema TEAE incidence, All grades (320 mg/m^2 (n=7)): 1 (14.3) n (%)
- Peripheral edema TEAE incidence, G≥3 (320 mg/m^2 (n=7)): 1 (14.3) n (%)
- Vomiting TEAE incidence, All grades (320 mg/m^2 (n=7)): 4 (57.1) n (%)
- Vomiting TEAE incidence, G≥3 (320 mg/m^2 (n=7)): 0 n (%)
- Patients with grade 3 bradycardia (unrelated to E6201) (320 mg/m^2 group): one
- Deaths (abnormal hepatic function, possibly related to E6201) (320 mg/m^2 group, post-Cycle 1): 1 patient
- Patients with CNS toxicity (grade 1 dizziness) treated conservatively as a DLT (400 mg/m^2): 1 patient
- Abdominal pain TEAE incidence, All grades (400 mg/m^2 (n=1)): 0 n (%)
- Abdominal pain TEAE incidence, G≥3 (400 mg/m^2 (n=1)): 0 n (%)
- Constipation TEAE incidence, All grades (400 mg/m^2 (n=1)): 0 n (%)
- Constipation TEAE incidence, G≥3 (400 mg/m^2 (n=1)): 0 n (%)
- Decreased appetite TEAE incidence, All grades (400 mg/m^2 (n=1)): 0 n (%)
- Decreased appetite TEAE incidence, G≥3 (400 mg/m^2 (n=1)): 0 n (%)
- Fatigue TEAE incidence, All grades (400 mg/m^2 (n=1)): 0 n (%)
- Fatigue TEAE incidence, G≥3 (400 mg/m^2 (n=1)): 0 n (%)
- Hypokalemia TEAE incidence, All grades (400 mg/m^2 (n=1)): 1 (100) n (%)
- Hypokalemia TEAE incidence, G≥3 (400 mg/m^2 (n=1)): 1 (100) n (%)
- Nausea TEAE incidence, All grades (400 mg/m^2 (n=1)): 0 n (%)
- Nausea TEAE incidence, G≥3 (400 mg/m^2 (n=1)): 0 n (%)
- Peripheral edema TEAE incidence, All grades (400 mg/m^2 (n=1)): 0 n (%)
- Peripheral edema TEAE incidence, G≥3 (400 mg/m^2 (n=1)): 0 n (%)
- Vomiting TEAE incidence, All grades (400 mg/m^2 (n=1)): 0 n (%)
- Vomiting TEAE incidence, G≥3 (400 mg/m^2 (n=1)): 0 n (%)
- Abdominal pain TEAE incidence, All grades (480 mg/m^2 (n=4)): 1 (25.0) n (%)
- Abdominal pain TEAE incidence, G≥3 (480 mg/m^2 (n=4)): 0 n (%)
- Constipation TEAE incidence, All grades (480 mg/m^2 (n=4)): 2 (50.0) n (%)
- Constipation TEAE incidence, G≥3 (480 mg/m^2 (n=4)): 0 n (%)
- Decreased appetite TEAE incidence, All grades (480 mg/m^2 (n=4)): 1 (25.0) n (%)
- Decreased appetite TEAE incidence, G≥3 (480 mg/m^2 (n=4)): 0 n (%)
- Fatigue TEAE incidence, All grades (480 mg/m^2 (n=4)): 2 (50.0) n (%)
- Fatigue TEAE incidence, G≥3 (480 mg/m^2 (n=4)): 0 n (%)
- Hypokalemia TEAE incidence, All grades (480 mg/m^2 (n=4)): 2 (50.0) n (%)
- Hypokalemia TEAE incidence, G≥3 (480 mg/m^2 (n=4)): 0 n (%)
- Nausea TEAE incidence, All grades (480 mg/m^2 (n=4)): 1 (25.0) n (%)
- Nausea TEAE incidence, G≥3 (480 mg/m^2 (n=4)): 0 n (%)
- Peripheral edema TEAE incidence, All grades (480 mg/m^2 (n=4)): 0 n (%)
- Peripheral edema TEAE incidence, G≥3 (480 mg/m^2 (n=4)): 0 n (%)
- Vomiting TEAE incidence, All grades (480 mg/m^2 (n=4)): 1 (25.0) n (%)
- Vomiting TEAE incidence, G≥3 (480 mg/m^2 (n=4)): 0 n (%)
- QTcF prolongation to >500 ms, patients (480 mg/m^2, Cycle 2): one
- Patients with DLTs (480 mg/m^2, QTcF > 500 ms, grade 4 confusion, QTcF increase > 60 ms): 3 patients
- Grade 3/4 ECG QT prolonged, patients (2 patients): 8.0%
- Grade 3/4 abdominal pain, patients (2 patients): 8.0%
- Grade 3/4 hyperbilirubinemia, patients (2 patients): 8.0%
- Grade 3/4 syncope, patients (2 patients): 8.0%
- Treatment-emergent SAEs other than death, patients (8 patients): 32.0%
- Grade 3/4 TEAEs, patients (11 patients): 44.0%
- QT prolongation reported as an AE (Grade 2/3, DLT, probably related), patients (30-min infusion, three patients): 12.0%
- Patients with ≥1 TEAE assessed as treatment-related (Eleven patients): 44.0%
- Abdominal pain TEAE incidence, All grades (Total (N=25)): 6 (24.0) n (%)
- Abdominal pain TEAE incidence, G≥3 (Total (N=25)): 2 (8.0) n (%)
- Constipation TEAE incidence, All grades (Total (N=25)): 7 (28.0) n (%)
- Constipation TEAE incidence, G≥3 (Total (N=25)): 0 n (%)
- Decreased appetite TEAE incidence, All grades (Total (N=25)): 5 (20.0) n (%)
- Decreased appetite TEAE incidence, G≥3 (Total (N=25)): 1 (4.0) n (%)
- Fatigue TEAE incidence, All grades (Total (N=25)): 7 (28.0) n (%)
- Fatigue TEAE incidence, G≥3 (Total (N=25)): 1 (4.0) n (%)
- Hypokalemia TEAE incidence, All grades (Total (N=25)): 7 (28.0) n (%)
- Hypokalemia TEAE incidence, G≥3 (Total (N=25)): 1 (4.0) n (%)
- Nausea TEAE incidence, All grades (Total (N=25)): 9 (36.0) n (%)
- Nausea TEAE incidence, G≥3 (Total (N=25)): 1 (4.0) n (%)
- Peripheral edema TEAE incidence, All grades (Total (N=25)): 4 (16.0) n (%)
- Peripheral edema TEAE incidence, G≥3 (Total (N=25)): 1 (4.0) n (%)
- Vomiting TEAE incidence, All grades (Total (N=25)): 7 (28.0) n (%)
- Vomiting TEAE incidence, G≥3 (Total (N=25)): 0 n (%)
- QTcF increase of 30–60 ms from baseline, patients (five patients): 20.0%
- QTcF prolongation to 450–500 ms, patients (five patients across dose groups): 20.0%
- QTcF increase of >60 ms from baseline, patients (two patients): 8.0%
- Maximum-tolerated dose (MTD) (30-min IV infusion once-weekly for 3 weeks of a 28-day cycle): 320 mg/m^2
